Where two headings read alike, the source gives them in different places.
Biological target: T1, β-catenin/Tcf protein-protein interaction (Homo sapiens, UniProt P35222)
T1 construct: Wild-type β-catenin (residues 138-781) were cloned into a pET-28b vector; 6×histidine (C); made in house; host or cells: E. coli BL21 DE3
T1 sequence (P35222 138-781): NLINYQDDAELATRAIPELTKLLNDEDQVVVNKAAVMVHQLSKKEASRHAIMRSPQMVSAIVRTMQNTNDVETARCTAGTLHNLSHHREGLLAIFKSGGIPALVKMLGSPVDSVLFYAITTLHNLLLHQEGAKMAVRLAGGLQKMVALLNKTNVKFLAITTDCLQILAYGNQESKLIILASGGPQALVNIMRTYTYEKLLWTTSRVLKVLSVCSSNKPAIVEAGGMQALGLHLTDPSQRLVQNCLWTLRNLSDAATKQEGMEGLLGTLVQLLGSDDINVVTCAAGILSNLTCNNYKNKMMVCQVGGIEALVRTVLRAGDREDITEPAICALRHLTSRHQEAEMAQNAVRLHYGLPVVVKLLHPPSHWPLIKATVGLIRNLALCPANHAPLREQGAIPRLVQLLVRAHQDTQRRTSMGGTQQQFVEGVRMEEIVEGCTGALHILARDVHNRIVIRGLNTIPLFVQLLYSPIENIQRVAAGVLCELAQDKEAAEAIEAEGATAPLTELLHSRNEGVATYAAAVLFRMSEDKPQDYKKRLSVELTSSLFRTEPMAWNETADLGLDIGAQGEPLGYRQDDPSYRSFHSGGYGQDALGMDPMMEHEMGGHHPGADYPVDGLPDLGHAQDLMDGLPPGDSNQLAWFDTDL
Experiment: FP competitive inhibition assay
Format: binding
Description: Protein Expression and Purification. Wild-type β-catenin (residues 138-781) were cloned into a pET-28b vector carrying a C-terminal 6×histidine (Novagen) and transformed into E. coli BL21 DE3 (Novagen). Cells were cultured in LB medium with 30 μg/mL kanamycin until the OD600 was approximately 0.8, and then protein expression was induced with 400 μM of IPTG at 20° C. overnight. Cells were lysed by sonication. The proteins were purified by Ni-NTA affinity chromatography (30210, Qiagen) and dialyzed against a buffer containing 20 mM of Tris (pH 8.8), 100 mM NaCl, 10% glycerol, and 3 mM DTT. The purity of β-catenin was set to >95% as determined by SDS-PAGE gel analysis. Native non-denaturing gel electrophoresis experiment and the thermal-shift assay on an iCycler iQ Real Time Detection System (Bio-Rad) were performed for each purified protein. In the thermal shift assay, protein unfolding was evaluated through measuring the fluorescence changes of fluorescent dye Sypro Orange with purified β-catenin proteins. A temperature increment of 1° C./min was applied to monitor protein stability and detect protein aggregation. CD spectra were measured on a J-815 spectropolarimeter (Jasco). All spectra were recorded using a 1 mm path-length quartz cell. The CD spectra were averaged over three scans, and the wavelength was scanned from 260 to 190 nm in step of 1 nm. All spectra were recorded at room temperature, and the baseline was corrected by subtracting the CD spectra of a blank control containing all of the substances except protein. Samples were prepared at a concentration around 1-5 μM in a buffer of 10 mM potassium phosphate and 100 mM potassium fluoride at pH 7.0 to ensure that the transmission of light through the sample was not restricted. All proteins were stable, and no aggregation was observed under storage or assay conditions. Proteins were aliquoted and stored at −80° C. C-terminally fluorescein-labeled human Tcf4 (residues 7-51) was synthesized and HPLC purified with purity >95%. The structures were validated by LC/MS (liquid chromatography/mass spectrometry).
FP Assays. The procedures for the FP competitive inhibition assays have been described previously (Zhang, M.; Huang, Z.; Yu, B.; Ji, H. New homogeneous high-throughput assays for inhibitors of β-catenin/Tcf protein-protein interactions Anal. Biochem. 2012, 424, 57-63; Zhang, M.; Catrow, J. L.; Ji, H. High-throughput selectivity assays for small-molecule inhibitors of β-catenin/T-cell factor protein-protein interactions. ACS Med. Chem. Lett. 2013, 4, 306-311). Briefly, all of the tested compounds were prepared as 10 mM DMSO stocks. In the primary screen, the concentrations of the compounds and DMSO were set to 50 μM and 1% (v/v). Only the compounds which FP signal decreases were greater than 50% in the single-point β-catenin/Tcf assay were evaluated by counter screen. […] In the FP competitive inhibition assay, 10 nM human β-catenin and 2.5 nM of C-terminally fluorescein-labeled human Tcf4 were incubated in an assay buffer of 137 mM NaCl, 2.7 mM KCl, 10 mM Na2HPO4, 2 mM KH2PO4, 100 μg/mL of bovine γ-globulin, and 0.01% Triton-X100 for 15 min at 4° C. Bovine γ-globulin and Triton-X100 were included in the assay buffer to decrease the likelihood of compound acting by aggregate formation. Different concentrations of the tested compounds in the assay buffer were added to each test plate to make a final volume of 100 μL. Each assay plate was covered black and gently mixed on an orbital shaker at 4° C. for 1.5 h to reach equilibrium before the polarization values were read. The IC50 value was determined by nonlinear least-square analysis of GraphPad Prism 5.0. The Ki values were derived (Nikolovska-Coleska, Z.; Wang, R.; Fang, X.; Pan, H.; Tomita, Y.; Li, P.; Roller, P. P.; Krajewski, K.; Saito, N. G.; Stuckey, J. A.; Wang, S. Development and optimization of a binding assay for the XIAP BIR3 domain using fluorescence polarization. Anal. Biochem. 2004, 332, 261-273). […]

[1] = Assay 1, mean ± SD (n = 3), read-out: Ki ± SD, Assay 1
[2] = Assay 2, mean ± SD (n = 3), read-out: Ki ± SD, Assay 2
[3] = Assay 3, mean ± SD (n = 3), read-out: Ki ± SD, Assay 3
[4] = Assay 4, mean ± SD (n = 3), read-out: Ki ± SD, Assay 4

Q: What does the source list for `O=C(O)c1ccc2c(c1)c(CCc1ccc(Cl)c(Cl)c1)cn2CCc1nn[nH]n1` [Compound 12, 1-(2-(2H-tetrazol-5-yl)ethyl)-3-(3,4-dichlorophenethyl)-1H-indole-5-carboxylic acid]?
A: Ki [1]: 6.6 ± 0.44 µM; Ki [2]: 41 ± 1.5 µM

Q: With `Cc1ccc(CCc2c(-c3csc4ccccc34)n(CCc3nn[nH]n3)c3ccc(C(=O)O)cc23)cc1` [Compound 79, 1-(2-(2H-tetrazol-5-yl)ethyl)-2-(benzo[b]thiophen-3-yl)-3-(4-methylphenethyl)-1H-indole-5-carboxylic acid] as the molecule, how does the Ki [1] read?
A: 0.57 ± 0.052 µM

Q: What about the Ki [2] of the same molecule?
A: 0.7 ± 0.06 µM

Q: `O=C(O)c1ccc2c(c1)c(CCc1cccc3ccccc13)cn2CCc1nn[nH]n1` [Compound 14, 1-(2-(2H-tetrazol-5-yl)ethyl)-3-(2-(naphthalen-1-yl)ethyl)-1H-indole-5-carboxylic acid] was tested. Which Ki [1] did it give?
A: 4.6 ± 0.36 µM

Q: What about the Ki [2] of the same molecule?
A: 3.5 ± 0.71 µM

Q: Which results are given for `O=C(O)c1ccc2c(c1)c(CCc1ccc(F)cc1)c(CCc1nc3ccccc3s1)n2CCc1nn[nH]n1` [Compound 26, 1-(2-(2H-tetrazol-5-yl)ethyl)-2-(2-(benzo[d]thiazol-2-yl)ethyl)-3-(4-fluorophenethyl)-1H-indole-5-carboxylic acid]?
A: Ki [1]: 6.7 ± 1.1 µM; Ki [2]: 2.7 ± 0.54 µM

Q: With `O=C(NCc1ccon1)c1ccc2c(c1)c(CCC1CCOCC1)c(-c1ccsc1)n2CCc1nn[nH]n1` [Compound 96, 1-(2-(2H-tetrazol-5-yl)ethyl)-N-(isoxazol-3-ylmethyl)-3-(2-(tetrahydro-2H-pyran-4-yl)ethyl)-2-(thiophen-3-yl)-1H-indole-5-carboxamide] as the molecule, how does the Ki [1] read?
A: > 25 µM

Q: And the Ki [2]?
A: > 25 µM

Q: With `Cc1c(C)n(CCc2nn[nH]n2)c2ccccc12` [Compound 3, 1-(2-(2H-tetrazol-5-yl)ethyl)-2,3-dimethyl-1H-indole] as the molecule, how does the Ki [1] read?
A: 250 ± 1.2 µM

Q: For `O=C(O)c1ccc2c(ccn2CCc2nn[nH]n2)c1` [Compound 4, 1-(2-(2H-tetrazol-5-yl)ethyl)-1H-indole-5-carboxylic acid], which Ki [1] is on record?
A: 550 ± 56 µM

Q: `COc1ccc2sc(C#Cc3c(CCc4ccc(Cl)cc4)c4cc(C(=O)O)ccc4n3CCc3nn[nH]n3)nc2c1` [Compound 71, 1-(2-(2H-tetrazol-5-yl)ethyl)-3-(4-chlorophenethyl)-2-((5-methoxybenzo[d]thiazol-2-yl)ethynyl)-1H-indole-5-carboxylic acid] was tested. Which Ki [1] did it give?
A: 0.18 ± 0.034 µM

Q: What about the Ki [2] of the same molecule?
A: 0.29 ± 0.026 µM

Q: And the Ki [3]?
A: 0.34 ± 0.023 µM

Q: What about the Ki [4] of the same molecule?
A: 0.45 ± 0.028 µM

Q: For `COc1ccc2nc(C#Cc3c(CCc4ccc5c(c4)OCCO5)c4cc(C(=O)O)ccc4n3CCc3nn[nH]n3)sc2c1` [Compound 75, 1-(2-(2H-tetrazol-5-yl)ethyl)-3-(2-(2,3-dihydrobenzo[b][1,4]dioxin-6-yl)ethyl)-2-((6-methoxybenzo[d]thiazol-2-yl)ethynyl)-1H-indole-5-carboxylic acid], which Ki [1] is on record?
A: 1.8 ± 0.11 µM

Q: What about the Ki [2] of the same molecule?
A: 0.68 ± 0.059 µM

Q: Which results are given for `O=C(O)c1ccc2c(c1)c(CCC1CCCCC1)c(-c1ccsc1)n2CCc1nn[nH]n1` [Compound 85, 1-(2-(2H-tetrazol-5-yl)ethyl)-3-(2-cyclohexylethyl)-2-(thiophen-3-yl)-1H-indole-5-carboxylic acid]?
A: Ki [1]: 0.81 ± 0.052 µM; Ki [2]: 8.2 ± 0.19 µM; Ki [3]: 0.52 ± 0.048 µM

Q: What does the source list for `Cc1ccc(CCc2c(-c3csc(C(F)F)c3)n(CCc3nn[nH]n3)c3ccc(C(=O)O)cc23)cc1` [Compound 80, 1-(2-(2H-tetrazol-5-yl)ethyl)-2-(5-(difluoromethyl)thiophen-3-yl)-3-(4-methylphenethyl)-1H-indole-5-carboxylic acid]?
A: Ki [1]: 0.92 ± 0.1 µM; Ki [2]: 1.9 ± 0.13 µM

Q: What does the source list for `Cc1ccc(CCc2c(-c3ccsc3)n(CCc3nn[nH]n3)c3ccc(C(N)=O)cc23)cc1` [Compound 88, 1-(2-(2H-tetrazol-5-yl)ethyl)-3-(4-methylphenethyl)-2-(thiophen-3-yl)-1H-indole-5-carboxamide]?
A: Ki [1]: 16 ± 0.71 µM; Ki [2]: ~24 µM

Q: What does the source list for `Cc1ccc(CCc2c(CCc3nc4ccccc4[nH]3)n(CCC(=O)O)c3ccc(C(=O)O)cc23)cc1` [Compound 42, 2-(2-(1H-benzo[d]imidazol-2-yl)ethyl)-1-(2-carboxyethyl)-3-(4-methylphenethyl)-1H-indole-5-carboxylic acid]?
A: Ki [1]: 29 ± 3.3 µM; Ki [2]: 2 ± 1.2 µM

Q: With `O=C(O)CCn1c(CCc2nc3ccccc3s2)c(CCc2ccccc2)c2cc(C(=O)O)ccc21` [Compound 37, 2-(2-(Benzo[d]thiazol-2-yl)ethyl)-1-(2-carboxyethyl)-3-phenethyl-1H-indole-5 carboxylic acid] as the molecule, how does the Ki [1] read?
A: 28 ± 6.8 µM

Q: For `O=C(O)c1ccc2c(c1)c(CCc1nccs1)cn2CCc1nn[nH]n1` [Compound 15, 1-(2-(2H-tetrazol-5-yl)ethyl)-3-(2-(thiazol-2-yl)ethyl)-1H-indole-5-carboxylic acid], which Ki [1] is on record?
A: 29 ± 1.5 µM

Q: And the Ki [2]?
A: > 51 µM

Q: `COc1ccc2sc(CCc3c(CCc4ccc(Cl)cc4)c4cc(C(=O)Nc5ccc(Cl)cc5)ccc4n3CCc3nn[nH]n3)nc2c1` [Compound 47, 1-(2-(2H-tetrazol-5-yl)ethyl)-3-(4-chlorophenethyl)-N-(4-chlorophenyl)-2-(2-(5-methoxybenzo[d]thiazol-2-yl)ethyl)-1H-indole-5-carboxamide] was tested. Which Ki [1] did it give?
A: 7.4 ± 1.4 µM

Q: What about the Ki [2] of the same molecule?
A: 10 ± 0.66 µM

Q: And the Ki [3]?
A: 2.1 ± 0.26 µM

Q: What about the Ki [4] of the same molecule?
A: 2.1 ± 0.27 µM

Q: For `COc1ccc2nc(C#Cc3c(CCc4ccc(C)cc4)c4cc(C(=O)O)ccc4n3CCc3nn[nH]n3)sc2c1` [Compound 73, 1-(2-(2H-tetrazol-5-yl)ethyl)-2-((6-methoxybenzo[d]thiazol-2-yl)ethynyl)-3-(4-methylphenethyl)-1H-indole-5-carboxylic acid], which Ki [1] is on record?
A: 1 ± 0.076 µM

Q: How did the Ki [1] turn out when `COCCOc1ccc2sc(CCc3c(CCc4ccc(Cl)cc4)c4cc(C(=O)O)ccc4n3CCc3nn[nH]n3)nc2c1` [Compound 32, 1-(2-(2H-tetrazol-5-yl)ethyl)-3-(4-chlorophenethyl)-2-(2-(5-(2-methoxyethoxy)benzo [d]thiazol-2-yl)ethyl)-1H-indole-5-carboxylic acid] was run?
A: 6.1 ± 1.5 µM

Q: And the Ki [2]?
A: 7.5 ± 1.9 µM

Q: What about the Ki [3] of the same molecule?
A: 3.7 ± 1.3 µM

Q: With `O=C(O)c1ccc2c(c1)c(CCc1ccc3ccccc3c1)cn2CCc1nn[nH]n1` [Compound 13, 1-(2-(2H-tetrazol-5-yl)ethyl)-3-(2-(naphthalen-2-yl)ethyl)-1H-indole-5-carboxylic acid] as the molecule, how does the Ki [1] read?
A: 6.5 ± 1 µM

From patent US11530186B2, “Inhibitors for the β-catenin / T-cell factor protein-protein interaction” (H. LEE MOFFITT CANCER CENTER AND RESEARCH INSTITUTE, INC., priority 2018, dated 2022)
